Assay results published in the NIST ThermoML archive (doi:10.1021/je300487n).

Tests used:
[1] = refractive index (Na D-line) (dimensionless); conditions: 101.33 kPa, Liquid, Standard Abbe refractometry
[2] = for viscosity / mass density: 101.33 kPa, Liquid; for viscosity: Concentric cylinders viscometry; for mass density: Vibrating tube method; for surface tension liquid-gas: Drop volume

CC(=O)[O-].CCn1cc[n+](C)c1 [1-ethyl-3-methylimidazolium acetate]
[1]
Conditions | refractive index
283.15 K | 1.50402
288.15 K | 1.50267
293.15 K | 1.50129
298.15 K | 1.49992
303.15 K | 1.49854
308.15 K | 1.49718
313.15 K | 1.49581
318.15 K | 1.49447
323.15 K | 1.49307
328.15 K | 1.49171
333.15 K | 1.49035
338.15 K | 1.48899
343.15 K | 1.48756
348.15 K | 1.48613
353.15 K | 1.48476

CC(=O)O.CCN(C)C [N,N-dimethylethanamine acetate]
Conditions | mass density, [2] [kg/m3] | refractive index, [1] | surface tension liquid-gas, [2] [mN/m] | viscosity, [2] [mPa·s]
283.15 K | 1028 | 1.42303 | – | 26.22
288.15 K | 1024 | 1.42143 | – | 20.89
293.15 K | 1020.1 | 1.41983 | – | 16.36
298.15 K | 1016.1 | 1.41819 | – | 13.97
298.2 K | – | – | 33.5 | –
303.15 K | 1012.2 | 1.41655 | – | 11.68
308.1 K | – | – | 32.7 | –
308.15 K | 1008.3 | 1.41492 | – | 9.888
313.15 K | 1004.4 | 1.41328 | – | 8.275
318 K | – | – | 32.1 | –
318.15 K | 1000.5 | 1.41156 | – | 7.316
323.15 K | 996.8 | 1.40991 | – | 6.381
328.15 K | 992.9 | 1.4082 | – | 5.611
328.4 K | – | – | 31.3 | –
333.15 K | 989 | 1.40649 | – | 4.869
338.15 K | 985 | 1.40476 | – | 4.427
338.2 K | – | – | 30.5 | –
343.15 K | 981.1 | 1.40312 | – | 3.97
348.15 K | 977.2 | 1.40138 | – | 3.578
353.15 K | 973.1 | 1.39963 | – | 3.132
358.15 K | 969.1 | – | – | 2.943
363.15 K | 965.1 | – | – | 2.691

CC(=O)[O-].CCCC[N+]1(C)CCCC1 [1-butyl-1-methylpyrrolidinium acetate]
Conditions | mass density, [2] [kg/m3] | refractive index, [1] | surface tension liquid-gas, [2] [mN/m] | viscosity, [2] [mPa·s]
283.15 K | – | 1.47263 | – | –
288.15 K | – | 1.47144 | – | –
293.15 K | – | 1.47075 | – | –
298.15 K | 1021.2 | 1.46998 | – | 106.63
298.3 K | – | – | 37.4 | –
303.15 K | 1018.1 | 1.46868 | – | 79.92
307.9 K | – | – | 36.8 | –
308.15 K | 1015.1 | 1.46736 | – | 61.34
313.15 K | 1012.1 | 1.46603 | – | 48.45
318 K | – | – | 36.4 | –
318.15 K | 1009.2 | 1.46461 | – | 38.34
323.15 K | 1006.2 | 1.4632 | – | 31.1
328.15 K | 1003.3 | 1.46178 | – | 25.61
328.4 K | – | – | 36.1 | –
333.15 K | 1000.4 | 1.46042 | – | 21.64
338.15 K | 997.8 | 1.459 | – | 18.05
338.5 K | – | – | 35.6 | –
343.15 K | 994.9 | 1.45755 | – | 15.42
343.6 K | – | – | 34.4 | –
348.15 K | 992 | 1.45619 | – | 13.3
353.15 K | 989.2 | 1.45479 | – | 11.84
358.15 K | 986.3 | – | – | 10.16
363.15 K | 983.5 | – | – | 8.983
